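Cells were grown in 96-well plates and exposed to each compound for 48 hours at five concentrations; endpoints were interpolated linearly between bracketing concentrations, or set to the highest concentration if not reached. GI50 is the concentration that inhibits growth by half. The concentration for full growth arrest is given as TGI.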
Columns and labels:
Test in all cases: NCI tumour cell line growth inhibition, 48 h
RXF 393 renal = system: RXF 393 renal
PC-3 prostate = system: PC-3 prostate
M14 melanoma = system: M14 melanoma
SR leukemia = system: SR leukemia
SF-295 CNS = system: SF-295 CNS
MOLT-4 leukemia = system: MOLT-4 leukemia
HCT-15 colon = system: HCT-15 colon
U251 CNS = system: U251 CNS
HCT-116 colon = system: HCT-116 colon
OVCAR-8 ovarian = system: OVCAR-8 ovarian
SK-OV-3 ovarian = system: SK-OV-3 ovarian
786-0 renal = system: 786-0 renal
KM12 colon = system: KM12 colon
RPMI-8226 leukemia = system: RPMI-8226 leukemia
MCF7 breast = system: MCF7 breast
SF-268 CNS = system: SF-268 CNS
SN12C renal = system: SN12C renal
NCI-H460 lung = system: NCI-H460 lung
A549 NSCLC = system: A549 NSCLC
UACC-257 melanoma = system: UACC-257 melanoma
OVCAR-5 ovarian = system: OVCAR-5 ovarian
COLO 205 colon = system: COLO 205 colon
OVCAR-4 ovarian = system: OVCAR-4 ovarian
TK-10 renal = system: TK-10 renal
HT29 colon = system: HT29 colon
MDA-MB-435 = system: MDA-MB-435
SNB-75 CNS = system: SNB-75 CNS
NCI/ADR-RES ovarian = system: NCI/ADR-RES ovarian
DU-145 prostate = system: DU-145 prostate
MDA-MB-231 breast = system: MDA-MB-231 breast
NCI-H522 lung = system: NCI-H522 lung
UO-31 renal = system: UO-31 renal
SW-620 colon = system: SW-620 colon
HL-60(TB) leukemia = system: HL-60(TB) leukemia
OVCAR-3 ovarian = system: OVCAR-3 ovarian
SNB-19 CNS = system: SNB-19 CNS
SK-MEL-28 melanoma = system: SK-MEL-28 melanoma
SK-MEL-5 melanoma = system: SK-MEL-5 melanoma
HOP-92 NSCLC = system: HOP-92 NSCLC
HOP-62 NSCLC = system: HOP-62 NSCLC
NCI-H23 lung = system: NCI-H23 lung
EKVX NSCLC = system: EKVX NSCLC
A498 renal = system: A498 renal
SK-MEL-2 melanoma = system: SK-MEL-2 melanoma
SF-539 CNS = system: SF-539 CNS
ACHN renal = system: ACHN renal
LOX IMVI melanoma = system: LOX IMVI melanoma
MALME-3M melanoma = system: MALME-3M melanoma
HS 578T breast = system: HS 578T breast
NCI-H226 lung = system: NCI-H226 lung
BT-549 breast = system: BT-549 breast
T-47D breast = system: T-47D breast
HCC-2998 colon = system: HCC-2998 colon
CAKI-1 renal = system: CAKI-1 renal
UACC-62 melanoma = system: UACC-62 melanoma

SMILES: NCCCCCCCCCCn1c2c(c3ccccc3c1=O)C(=O)c1ccccc1-2
- GI50 (RXF 393 renal): 15.2 µM
- TGI (RXF 393 renal): 36.7 µM
- GI50 (PC-3 prostate): 2.16 µM
- TGI (PC-3 prostate): 4.54 µM
- GI50 (M14 melanoma): 4.72 µM
- TGI (M14 melanoma): 16 µM
- GI50 (SR leukemia): 1.86 µM
- TGI (SR leukemia): 3.53 µM
- GI50 (SF-295 CNS): 6.48 µM
- TGI (SF-295 CNS): 22 µM
- GI50 (MOLT-4 leukemia): 1.81 µM
- TGI (MOLT-4 leukemia): 3.32 µM
- GI50 (HCT-15 colon): 4.51 µM
- TGI (HCT-15 colon): 16.9 µM
- GI50 (U251 CNS): 10.1 µM
- TGI (U251 CNS): 24.7 µM
- GI50 (HCT-116 colon): 2.74 µM
- TGI (HCT-116 colon): 7.66 µM
- GI50 (OVCAR-8 ovarian): 3.34 µM
- TGI (OVCAR-8 ovarian): 56.9 µM
- GI50 (SK-OV-3 ovarian): 18.7 µM
- TGI (SK-OV-3 ovarian): 35 µM
- GI50 (786-0 renal): 4.8 µM
- TGI (786-0 renal): 19.4 µM
- GI50 (KM12 colon): 5.85 µM
- TGI (KM12 colon): 21.9 µM
- GI50 (RPMI-8226 leukemia): 2.16 µM
- TGI (RPMI-8226 leukemia): 4.47 µM
- GI50 (MCF7 breast): 4.67 µM
- TGI (MCF7 breast): 20.2 µM
- GI50 (SF-268 CNS): 11.7 µM
- TGI (SF-268 CNS): 50.3 µM
- GI50 (SN12C renal): 3.32 µM
- TGI (SN12C renal): 9.41 µM
- GI50 (NCI-H460 lung): 4.06 µM
- TGI (NCI-H460 lung): 18.5 µM
- GI50 (A549 NSCLC): 11.5 µM
- TGI (A549 NSCLC): 37 µM
- GI50 (UACC-257 melanoma): 21.2 µM
- TGI (UACC-257 melanoma): 44.8 µM
- GI50 (OVCAR-5 ovarian): 4.52 µM
- TGI (OVCAR-5 ovarian): 15.3 µM
- GI50 (COLO 205 colon): 3.58 µM
- TGI (COLO 205 colon): 12.7 µM
- GI50 (OVCAR-4 ovarian): 8.7 µM
- TGI (OVCAR-4 ovarian): 25.1 µM
- GI50 (TK-10 renal): 6.55 µM
- TGI (TK-10 renal): 20.9 µM
- GI50 (HT29 colon): 1.89 µM
- TGI (HT29 colon): 3.75 µM
- GI50 (MDA-MB-435): 11.8 µM
- TGI (MDA-MB-435): 27.9 µM
- GI50 (SNB-75 CNS): 5.01 µM
- TGI (SNB-75 CNS): 17.5 µM
- GI50 (NCI/ADR-RES ovarian): 10.9 µM
- TGI (NCI/ADR-RES ovarian): 28.5 µM
- GI50 (DU-145 prostate): 3.46 µM
- TGI (DU-145 prostate): 11.2 µM
- GI50 (MDA-MB-231 breast): 5.22 µM
- TGI (MDA-MB-231 breast): 18 µM
- GI50 (NCI-H522 lung): 2.84 µM
- TGI (NCI-H522 lung): 8.4 µM
- GI50 (UO-31 renal): 6.16 µM
- TGI (UO-31 renal): 18.8 µM
- GI50 (SW-620 colon): 2.33 µM
- TGI (SW-620 colon): 5.5 µM
- GI50 (HL-60(TB) leukemia): 1.77 µM
- TGI (HL-60(TB) leukemia): 3.44 µM
- GI50 (OVCAR-3 ovarian): 10.8 µM
- TGI (OVCAR-3 ovarian): 27.3 µM
- GI50 (SNB-19 CNS): 8.31 µM
- TGI (SNB-19 CNS): 28 µM
- GI50 (SK-MEL-28 melanoma): 3.97 µM
- TGI (SK-MEL-28 melanoma): 14.8 µM
- GI50 (SK-MEL-5 melanoma): 8.25 µM
- TGI (SK-MEL-5 melanoma): 21.3 µM
- GI50 (HOP-92 NSCLC): 2.74 µM
- TGI (HOP-92 NSCLC): 7.49 µM
- GI50 (HOP-62 NSCLC): 4.84 µM
- TGI (HOP-62 NSCLC): 17.3 µM
- GI50 (NCI-H23 lung): 14.9 µM
- TGI (NCI-H23 lung): 32.6 µM
- GI50 (EKVX NSCLC): 17.3 µM
- TGI (EKVX NSCLC): 37.8 µM
- GI50 (A498 renal): 13.1 µM
- TGI (A498 renal): 33.7 µM
- GI50 (SK-MEL-2 melanoma): 2.04 µM
- TGI (SK-MEL-2 melanoma): 4.41 µM
- GI50 (SF-539 CNS): 1.83 µM
- TGI (SF-539 CNS): 3.52 µM
- GI50 (ACHN renal): 6 µM
- TGI (ACHN renal): 18.2 µM
- GI50 (LOX IMVI melanoma): 2.65 µM
- TGI (LOX IMVI melanoma): 7.06 µM
- GI50 (MALME-3M melanoma): 13.2 µM
- TGI (MALME-3M melanoma): 33.9 µM
- GI50 (HS 578T breast): 13.6 µM
- TGI (HS 578T breast): 36.4 µM
- GI50 (NCI-H226 lung): 20.4 µM
- TGI (NCI-H226 lung): 47.1 µM
- GI50 (BT-549 breast): 5.64 µM
- TGI (BT-549 breast): 19.8 µM
- GI50 (T-47D breast): 11.4 µM
- TGI (T-47D breast): 39 µM
- GI50 (HCC-2998 colon): 6.14 µM
- TGI (HCC-2998 colon): 19 µM
- GI50 (CAKI-1 renal): 14.7 µM
- TGI (CAKI-1 renal): 32.1 µM
- GI50 (UACC-62 melanoma): 13.7 µM
- TGI (UACC-62 melanoma): 29.4 µM
